We go through three compounds from patent US9517254B2, “Treatment regimens” (S1 Biopharma, Inc., priority 2012, dated 2016).

Test [1] deals with healthy volunteer. The experiment in a line: Patient's global impression of improvement (PGI) for sexual events (arousal, orgasm, overall satisfaction), same single-volunteer study. It is filed as in vivo, human.
In test [2] the test system is healthy volunteer. The experiment in a line: Daily sexual desire score (0-2) in a single volunteer given four sequential 4-week treatments. Type of test: in vivo, human. As to conditions: for sexual desire response: 4 weeks of treatment; for sexual desire, comparison of bupropion alone with trazodone alone: 4 weeks each.
Description: A healthy volunteer in a stable marital relationship for two years with no current sexual disorders, exposed themself sequentially to four treatments, each for 4 weeks: (1) Treatment B: Instant-release (IR) Bupropion (Bup) 150 mg in the morning and 100 mg in the evening; (2) Treatment T: IR trazodone (Trz) 50 mg t.i.d.; (3) Treatment Llow, IR Trz 25 mg b.i.d. plus IR Bup 150 mg in the morning and 100 mg in the evening; and (4) Treatment Lhigh, IR Trz 50 mg t.i.d. plus IR Bup 75 mg t.i.d. A washout of 1-4 weeks occurred between each treatment.
The test used for the desire score was a two-tailed paired t test, using all scores within a given treatment as repeated measures. […] Both were from the website graphpad.com.* *http://graphpad.com/quickcalcs/chisquared1.cfm
A further test deals with patients. As to conditions: transnasal, three patients; cited from earlier work.
The test system of the next test is men. The note with it: 24 IU intranasal, placebo-controlled; cited from earlier work.
[3] abbreviates: wks 1-2, arousal, orgasm, overall satisfaction.

Where “and” joins values, the source holds several entries; their conditions need not be identical. Identical values can stand only once. Numbered stars: 1 amine (or outer) side, 2 acyl side, 3 side chain; on linkers, the order of the positions; unused ones are H or OH. Bridge positions count the residues as written; N and C are the ends. Square brackets hold non-standard residues; d marks the D form. Peptide text beside a SMILES is read from it. X1 = O=C(c1ccc(O)cc1)[C@H](N[*:1])C(=O)[*:2]

For `O=c1n(CCCN2CCN(c3cccc(Cl)c3)CC2)nc2ccccn12` [Trz, 2-{3-[4-(3-chlorophenyl)piperazin-1-yl]propyl}[1,2,4]triazolo[4,3-a]pyridin-3(2H)-one], the “PGI Improved for Sexual Events, Sum of 3 domains, % improved” value in the test with healthy volunteer [1] (total, all four weeks) is recorded as 20%; with healthy volunteer [1] (wks 1-2), 25%; with healthy volunteer [1] (wks 3-4) it was 17%. Further, the “PGI Improved for Sexual Events, Sum of 3 domains, n/N” value is given as 6/30 in the test on healthy volunteer [1] (total, all four weeks); 3/12 in the test on healthy volunteer [1] (setting [3]); 3/18 in the test with healthy volunteer [1] (wks 3-4). For the same compound, the “sexual desire response” value with healthy volunteer [2] is reported as “low”. The “0-2 Daily Desire Score, % of max.” value in the test on healthy volunteer [2] (total, all four weeks) is on record as 4%; in the test on healthy volunteer [2] (wks 1-2, max. = 28), 7%; in the test with healthy volunteer [2] (wks 3-4, max. = 28), 0, 0%. The “0-2 Daily Desire Score, mean ± SD” value is 0.07 ± 0.38 in the test on healthy volunteer [2] (total, all four weeks) and 0.14 ± 0.53 in the test with healthy volunteer [2] (wks 1-2). In addition, the “0-2 Daily Desire Score, total” value in the test on healthy volunteer [2] (total, all four weeks) is 2; in the test with healthy volunteer [2] (wks 1-2, max. = 28) it was 2; in the test with healthy volunteer [2] (wks 3-4, max. = 28), 0, 0%.

`CC[C@H](C)[C@@H]1NC(=O)[C@H](C(=O)c2ccc(O)cc2)NC(=O)[C@@H](N)CSSC[C@@H](C(=O)N2CCC[C@H]2C(=O)N[C@@H](CC(C)C)C(=O)NCC(N)=O)NC(=O)[C@H](CC(N)=O)NC(=O)[C@H](CCC(N)=O)NC1=O` [OT, 1-({(4R,7S,10S,13S,16S,19R)-19-amino-7-(2-amino-2-oxoethyl)-10-(3-amino-3-oxopropyl)-16-(4-hydroxybenzoyl)-13-[(1S)-1-methylpropyl]-6,9,12,15,18-pentaoxo-1,2-dithia-5,8,11,14,17-pentaazacycloicosan-4-yl}carbonyl)-L-prolyl-L-leucylglycinamide] (H-C[X1]IQNCPLG-NH2; disulfide 1-6): the “effect on sexual function in case reports” value in the test with patients is reported as “pro-sexual effects”. Also, the “arousal or orgasm on the Acute Sexual Experiences Scale (ASES)” value in the test on men is “failed to increase arousal or orgasm”.

As to `CC(NC(C)(C)C)C(=O)c1cccc(Cl)c1` (racemic) [Bup, (±)-2-(tert-Butylamino)-1-(3-chlorophenyl)propan-1-one], the “arousal, % of sexual events improved” value in the test with healthy volunteer [1] (third and fourth weeks of use) came out at 0%; in the test on healthy volunteer [1] (total for all four weeks), 20%; in the test on healthy volunteer [1] (weeks 1-2), 40%. The “PGI Improved for Sexual Events, Sum of 3 domains, % improved” value in the test on healthy volunteer [1] (total, all four weeks) is 20%; in the test on healthy volunteer [1] (wks 1-2), 27%; in the test with healthy volunteer [1] (wks 3-4), 13%; in the test with healthy volunteer [1] (wks 3-4, listed as B) it was 20% and 13%. Besides, the “PGI Improved for Sexual Events, Sum of 3 domains, n/N” value was 6/30 with healthy volunteer [1] (total, all four weeks); 4/15 with healthy volunteer [1] (setting [3]); 2/15 with healthy volunteer [1] (wks 3-4). Further, in the test with healthy volunteer [1] (weeks 1-2), the “arousal, sexual events improved, n/N” value was “⅖”. For the same compound, the results for the “sexual desire, comparison of bupropion alone with trazodone alone” value with healthy volunteer [2] (listed as B) and in the test on healthy volunteer [2] (listed as Treatment B) were “markedly superior to T” and “superior to Treatment T”, respectively. Moreover, the “sexual desire response” value in the test with healthy volunteer [2] was “intermediate”. The “0-2 Daily Desire Score, mean ± SD” value in the test on healthy volunteer [2] (total, all four weeks) was 0.82 ± 0.55; in the test with healthy volunteer [2] (wks 1-2) it was 0.65 ± 0.74. The “0-2 Daily Desire Score, % of max.” value in the test on healthy volunteer [2] (wks 1-2, max. = 28) was found to be 32%; in the test with healthy volunteer [2] (wks 3-4, max. = 28) it was 50%. In addition, the “0-2 Daily Desire Score, total” value is recorded as 9 in the test with healthy volunteer [2] (wks 1-2, max. = 28) and 14 in the test on healthy volunteer [2] (wks 3-4, max. = 28).
